The values below come from patent US20240043404A1 (AbbVie Inc., priority 2009, published 2024).

Bounds are passed on as bounds.

The assay deals with RS4;11 cells. Nature of the assay: RS4;11 cell viability assay (CellTiter Glo).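 Also: acute lymphoblastic leukemia line RS4,11, EC50 derived from percentage of viable cells after treatment relative to untreated controls, cell killing taken as a measure of Bcl-2 inhibition.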 Format: cell-based, human. The following applies: Homo sapiens, RS4-11, 48 h, 50,000 cells per well, 10% human serum, 48 hours; read-out: RS4; 11 EC50 Values.
Method: The acute lymphoblastic leukemia (ALL) cell line RS4;11 was used as the primary human cell line to assess the cellular activity of Bcl-2 selective agents in vitro and their efficacy in vivo.
Cell cytotoxicity EC50 values were assessed using CellTiter Glo (Promega) according to the manufacturer's recommendations. The EC50 values were determined as a percentage of viable cells following treatment compared to the untreated control cells.
On to `CC1(C)CCC(CN2CCN(c3ccc(C(=O)NS(=O)(=O)c4cnc(OCCC5CCCO5)c(Cl)c4)c(Oc4cnc5[nH]ccc5c4)c3)CC2)=C(c2ccc(Cl)cc2)C1` (stereo not drawn) [Example 289, 4-(4-{[2-(4-chlorophenyl)-4,4-dimethylcyclohex-1-en-1-yl]methyl}piperazin-1-yl)-N-({5-chloro-6-[2-(tetrahydrofuran-2-yl)ethoxy]pyridin-3-yl}sulfonyl)-2-(1H-pyrrolo[2,3-b]pyridin-5-yloxy)benzamide], for which the EC50 came to 669 nM.

Regarding `CC1(C)CCC(CN2CCN(c3ccc(C(=O)NS(=O)(=O)c4ccc(NCC5COCCO5)c([N+](=O)[O-])c4)c(Oc4cnc5[nH]ccc5c4)c3)CC2)=C(c2ccc(Cl)cc2)C1` (stereo not drawn) [Example 25, 4-(4-{[2-(4-chlorophenyl)-4,4-dimethylcyclohex-1-en-1-yl]methyl}piperazin-1-yl)-N-({4-[(1,4-dioxan-2-ylmethyl)amino]-3-nitrophenyl}sulfonyl)-2-(1H-pyrrolo[2,3-b]pyridin-5-yloxy)benzamide], the EC50 came out at 7 nM.

In the case of `CC1(C)CCC(CN2CCN(c3ccc(C(=O)NS(=O)(=O)c4ccc(N[C@H]5CCN(C6COC6)C5)c([N+](=O)[O-])c4)c(Oc4cnc5[nH]ccc5c4)c3)CC2)=C(c2ccc(Cl)cc2)C1` [Example 212, 4-(4-{[2-(4-chlorophenyl)-4,4-dimethylcyclohex-1-en-1-yl]methyl}piperazin-1-yl)-N-[(3-nitro-4-{[(3S)-1-oxetan-3-ylpyrrolidin-3-yl]amino}phenyl)sulfonyl]-2-(1H-pyrrolo[2,3-b]pyridin-5-yloxy)benzamide], the EC50 was 12.8 nM.

For `O=C(NS(=O)(=O)c1ccc(NCC2CCOCC2)c([N+](=O)[O-])c1)c1ccc(N2CCN(CC3=C(c4ccc(Cl)cc4)CCC4(CCCC4)C3)CC2)cc1Oc1cnc2[nH]ccc2c1` [Example 79, 4-(4-{[8-(4-chlorophenyl)spiro[4.5]dec-7-en-7-yl]methyl}piperazin-1-yl)-N-({3-nitro-4-[(tetrahydro-2H-pyran-4-ylmethyl)amino]phenyl}sulfonyl)-2-(1H-pyrrolo[2,3-b]pyridin-5-yloxy)benzamide], the EC50 was found to be 64.9 nM.

For `CC1(C)CC(c2ccc(Cl)cc2)=C(CN2CCN(c3ccc(C(=O)NS(=O)(=O)c4ccc(NCC5CCOCC5)c(C(F)(F)F)c4)c(Oc4cnc5[nH]ccc5c4)c3)CC2)CO1` [Example 42, 4-(4-{[4-(4-chlorophenyl)-6,6-dimethyl-5,6-dihydro-2H-pyran-3-yl]methyl}piperazin-1-yl)-2-(1H-pyrrolo[2,3-b]pyridin-5-yloxy)-N-{[4-[(tetrahydro-2H-pyran-4-ylmethyl)amino]-3-(trifluoromethyl)phenyl]sulfonyl}benzamide], the EC50 stood at 534 nM.

For the molecule `CC1(C)CCC(CN2CCN(c3ccc(C(=O)NS(=O)(=O)c4ccc(N[C@@H]5CCN(S(C)(=O)=O)C5)c([N+](=O)[O-])c4)c(Oc4cnc5[nH]ccc5c4)c3)CC2)=C(c2ccc(Cl)cc2)C1` [Example 149, 4-(4-{[2-(4-chlorophenyl)-4,4-dimethylcyclohex-1-en-1-yl]methyl}piperazin-1-yl)-N-[(4-{[(3R)-1-(methylsulfonyl)pyrrolidin-3-yl]amino}-3-nitrophenyl)sulfonyl]-2-(1H-pyrrolo[2,3-b]pyridin-5-yloxy)benzamide], the EC50 was found to be 13.5 nM.

`CC1(C)CCC(CN2CCN(c3ccc(C(=O)NS(=O)(=O)c4ccc(NC5CCN(C(CF)CF)CC5)c([N+](=O)[O-])c4)c(Oc4cnc5[nH]ccc5c4)c3)CC2)=C(c2ccc(Cl)cc2)C1` [Example 95, 4-(4-{[2-(4-chlorophenyl)-4,4-dimethylcyclohex-1-en-1-yl]methyl}piperazin-1-yl)-N-{[4-({1-[2-fluoro-1-(fluoromethyl)ethyl]piperidin-4-yl}amino)-3-nitrophenyl]sulfonyl}-2-(1H-pyrrolo[2,3-b]pyridin-5-yloxy)benzamide]: the EC50 amounted to 29.5 nM.

As to `CC1(C)CCC(CN2CCN(c3ccc(C(=O)NS(=O)(=O)c4ccc(NC5CCN(C6CC6)CC5)c([N+](=O)[O-])c4)c(Oc4cnc5[nH]ccc5c4)c3)CC2)=C(c2ccc(Cl)cc2)C1` [Example 98, 4-(4-{[2-(4-chlorophenyl)-4,4-dimethylcyclohex-1-en-1-yl]methyl}piperazin-1-yl)-N-({4-[(1-cyclopropylpiperidin-4-yl)amino]-3-nitrophenyl}sulfonyl)-2-(1H-pyrrolo[2,3-b]pyridin-5-yloxy)benzamide], the EC50 was 22.9 nM.

Regarding `CC1(C)CCC(CN2CCN(c3ccc(C(=O)NS(=O)(=O)c4cnc(OCC5CCOCC5)c(S(C)(=O)=O)c4)c(Oc4cnc5[nH]ccc5c4)c3)CC2)=C(c2ccc(Cl)cc2)C1` [Example 219, 4-(4-{[2-(4-chlorophenyl)-4,4-dimethylcyclohex-1-en-1-yl]methyl}piperazin-1-yl)-N-{[5-(methylsulfonyl)-6-(tetrahydro-2H-pyran-4-ylmethoxy)pyridin-3-yl]sulfonyl}-2-(1H-pyrrolo[2,3-b]pyridin-5-yloxy)benzamide], the EC50 was above 1000 nM.

`CC1(C)CCC(CN2CCN(c3ccc(C(=O)NS(=O)(=O)c4cnc(NC5CCN(C6CC6)CC5)c(Cl)c4)c(Oc4cnc5[nH]ccc5c4)c3)CC2)=C(c2ccc(Cl)cc2)C1` [Example 243, N-({5-chloro-6-[(1-cyclopropylpiperidin-4-yl)amino]pyridin-3-yl}sulfonyl)-4-(4-{[2-(4-chlorophenyl)-4,4-dimethylcyclohex-1-en-1-yl]methyl}piperazin-1-yl)-2-(1H-pyrrolo[2,3-b]pyridin-5-yloxy)benzamide]: the EC50 turned out to be 807 nM.

Take `CC1(C)CCC(CN2CCN(c3ccc(C(=O)NS(=O)(=O)c4ccc(N[C@H]5CC[C@H](N(CC6CC6)CC6CC6)CC5)c([N+](=O)[O-])c4)c(Oc4cnc5[nH]ccc5c4)c3)CC2)=C(c2ccc(Cl)cc2)C1` [Example 64, Trans-N-{[4-({4-[bis(cyclopropylmethyl)amino]cyclohexyl}amino)-3-nitrophenyl]sulfonyl}-4-(4-{[2-(4-chlorophenyl)-4,4-dimethylcyclohex-1-en-1-yl]methyl}piperazin-1-yl)-2-(1H-pyrrolo[2,3-b]pyridin-5-yloxy)benzamide]: the EC50 came to 0.25 nM.

On to `CC1(C)CCC(CN2CCN(c3ccc(C(=O)NS(=O)(=O)c4ccc(OCC5(F)CCNCC5)c([N+](=O)[O-])c4)c(Oc4cnc5[nH]ccc5c4)c3)CC2)=C(c2ccc(Cl)cc2)C1` [Example 127, 4-(4-{[2-(4-chlorophenyl)-4,4-dimethylcyclohex-1-en-1-yl]methyl}piperazin-1-yl)-N-({4-[(4-fluoropiperidin-4-yl)methoxy]-3-nitrophenyl}sulfonyl)-2-(1H-pyrrolo[2,3-b]pyridin-5-yloxy)benzamide], for which the EC50 was 9.75 nM.

With `CC1(C)CCC(CN2CCN(c3ccc(C(=O)NS(=O)(=O)c4cnc(OCC5(F)CCN(C(CF)CF)CC5)c(C(F)(F)F)c4)c(Oc4cnc5[nH]ccc5c4)c3)CC2)=C(c2ccc(Cl)cc2)C1` [Example 288, 4-(4-{[2-(4-chlorophenyl)-4,4-dimethylcyclohex-1-en-1-yl]methyl}piperazin-1-yl)-N-{[6-{[1-(1,3-difluoropropan-2-yl)-4-fluoropiperidin-4-yl]methoxy}-5-(trifluoromethyl)pyridin-3-yl]sulfonyl}-2-(1H-pyrrolo[2,3-b]pyridin-5-yloxy)benzamide], the EC50 turned out to be 390 nM.

Take `CC1(C)CCC(CN2CCN(c3ccc(C(=O)NS(=O)(=O)c4ccc(OCC5(F)CCN(C6CCOC6)CC5)c([N+](=O)[O-])c4)c(Oc4cnc5[nH]ccc5c4)c3)CC2)=C(c2ccc(Cl)cc2)C1` (stereo not drawn) [Example 193, 4-(4-{[2-(4-chlorophenyl)-4,4-dimethylcyclohex-1-en-1-yl]methyl}piperazin-1-yl)-N-({4-[(4-fluoro-1-tetrahydrofuran-3-ylpiperidin-4-yl)methoxy]-3-nitrophenyl}sulfonyl)-2-(1H-pyrrolo[2,3-b]pyridin-5-yloxy)benzamide]: the EC50 worked out at 0.76 nM.

Regarding `CC1(C)CCC(CN2CCN(c3ccc(C(=O)NS(=O)(=O)c4ccc(N[C@@H]5CCN(CC(F)F)C5)c([N+](=O)[O-])c4)c(Oc4cnc5[nH]ccc5c4)c3)CC2)=C(c2ccc(Cl)cc2)C1` [Example 180, 4-(4-{[2-(4-chlorophenyl)-4,4-dimethylcyclohex-1-en-1-yl]methyl}piperazin-1-yl)-N-[(4-{[(3R)-1-(2,2-difluoroethyl)pyrrolidin-3-yl]amino}-3-nitrophenyl)sulfonyl]-2-(1H-pyrrolo[2,3-b]pyridin-5-yloxy)benzamide], the EC50 stood at 11.8 nM.

`COC1(Cc2ccccc2-c2ccc(Cl)cc2)CCN(c2ccc(C(=O)NS(=O)(=O)c3cnc(OCC4(F)CCOCC4)c(Cl)c3)c(Oc3cnc4[nH]ccc4c3)c2)CC1` [Example 263, 4-{4-[(4′-chlorobiphenyl-2-yl)methyl]-4-methoxypiperidin-1-yl}-N-({5-chloro-6-[(4-fluorotetrahydro-2H-pyran-4-yl)methoxy]pyridin-3-yl}sulfonyl)-2-(1H-pyrrolo[2,3-b]pyridin-5-yloxy)benzamide]: the EC50 was above 1000 nM.

On to `CC1(C)CCC(CN2CCN(c3ccc(C(=O)NS(=O)(=O)c4ccc(NC5CCN(S(C)(=O)=O)CC5)c([N+](=O)[O-])c4)c(Oc4cnc5[nH]ccc5c4)c3)CC2)=C(c2ccc(Cl)cc2)C1` [Example 80, 4-(4-{[2-(4-chlorophenyl)-4,4-dimethylcyclohex-1-en-1-yl]methyl}piperazin-1-yl)-N-[(4-{[1-(methylsulfonyl)piperidin-4-yl]amino}-3-nitrophenyl)sulfonyl]-2-(1H-pyrrolo[2,3-b]pyridin-5-yloxy)benzamide], for which the EC50 came out at 68.6 nM.

In the case of `CC1(C)CCC(CN2CCN(c3ccc(C(=O)NS(=O)(=O)c4ccc(NCC5CN(C6COC6)CCO5)c([N+](=O)[O-])c4)c(Oc4cnc5[nH]ccc5c4)c3)CC2)=C(c2ccc(Cl)cc2)C1` (stereo not drawn) [Example 217, 4-(4-{[2-(4-chlorophenyl)-4,4-dimethylcyclohex-1-en-1-yl]methyl}piperazin-1-yl)-N-{[3-nitro-4-({[4-(oxetan-3-yl)morpholin-2-yl]methyl}amino)phenyl]sulfonyl}-2-(1H-pyrrolo[2,3-b]pyridin-5-yloxy)benzamide], the EC50 was found to be 1.55 nM.
